Experimental findings from publication PMC8032764 (Scientific Reports, 2021) are described below.

Each structure is given as a SMILES string.

One series is described as follows: Plasma protein binding. The class given is in vitro ADME. The text has this:
Free plasma concentrations were used to estimate receptor occupancy.

The next series concerns male F-344 rats. The series is described as follows: Social approach avoidance test.
Another series concerns T1, Dopamine D2S.
T1 construct: host or cells: HEK-293
The series is described as follows: Cerep binding. More on the design: species or system human. To be noted: 10 μM; [3H]spiperone; hum. recomb. (HEK-293).

Procedure for male F-344 rats: Experiments on social approach avoidance were performed as described previously by[41] and[14]. A tracking system (Ethovision, Noldus, The Netherlands) was used to analyse each rat’s pathway.

The fraction unbound is the share of the substance not bound to proteins or other matrix. A word on the % Inhibition: it is the percentage by which the read-out fell short of the control. Low values mean little suppression, high ones strong suppression. With `Cc1onc(-c2ccc(F)cc2)c1COc1ccc(C(=O)N2CCS(=O)(=O)CC2)cn1` [basmisanil], the fraction unbound was 0.055 in “Plasma protein binding” (human, plasma, primates, including humans) and 0.14 in the series “Plasma protein binding” (rat, rats). This molecule returned a free fraction in the series “Plasma protein binding” (primates, including humans) of 5.5%. Also, in the series with male F-344 rats (3–100 mg/kg p.o., 1 h prior to testing), the “time spent in the social compartment” value is given as “did not significantly reduce the time spent in the social compartment”. Moreover, in the series with male F-344 rats (up to 100 mg/kg p.o.), the “anxiogenic-like effect (time in social compartment and in hidden area)” value is on record as “did not have an anxiogenic-like effect”. For the same molecule, the “% Inhibition” value in the series on Dopamine D2S is 9%.
